Measured values published in US7750166B2, “Ionic liquids containing a sulfonate anion” (University of South Alabama, priority 2002, dated 2010).
Read-outs that look alike come from different tables or passages of the source.

How the values were obtained:
[1] = Description: Supercritical applications using CO2 typically operate at temperatures between above 32° C. and pressures above about 1,070 psi.
[2] = Solubility in water; format: physicochemical
Remark: listed apart in the source
[3] = Solubility in common organic solvents; format: physicochemical; conditions: such as dichloromethane and acetone
Description: This example details the synthesis of a tetrabutyl ammonium molten salt of the amide having chemical formula III above. One-tenth of a mole (50 g) of the sodium salt of the amide-sulfonate salt having chemical structure III above (with R2 and R4 being CH2CH3, R1 and R5 each being a 2-ethylhexyl group, and R3 being CH2) was dissolved in 250 mL of dichloromethane, and one-tenth mole (32 g) of tetrabutyl ammonium bromide was added as a solid. The mixture was stirred for a day, after which time the solution was filtered first through filter paper and then through a short plug of silica gel. The eluted dichloromethane solution was quickly washed with water, dried over magnesium sulfate, and the solvent removed in vacuo, leaving the desired product in high yield (64 g, 89%). The product salt is soluble in both water and in several common organic solvents, such as dichloromethane and acetone. The melting range of the resulting salt was less than about 30° C. because the product was a viscous oil at room temperature. The product salt included Bis (N-ethyl-N-(2-ethylhexyl)sulfosuccinate diamide) anion paired with tetrabutyl ammonium cation.

Compound: CCCCC(CC)COC(=O)CC(C(=O)OCC(CC)CCCC)S(=O)(=O)[O-].CCCC[N+](CCCC)(CCCC)CCCC (stereo not drawn) [Example 1, tetrabutylammonium docusate]
- Solubility in supercritical carbon dioxide (CO2) [1]: soluble

Compound: CCCCC(CC)COC(=O)CC(C(=O)OCC(CC)CCCC)S(=O)(=O)[O-].CCCC[N+](C)(CCCC)CCCC (stereo not drawn) [Example 2, Me(n-Bu)3N Docusate]
- Solubility in water [2]: Hydrophobic

Compound: CCCCC(CC)COC(=O)CC(C(=O)OCC(CC)CCCC)S(=O)(=O)[O-].CCCCC(CC)COC(=O)CC(C(=O)OCC(CC)CCCC)S(=O)(=O)[O-].C[N+](C)(C)CCCCCC[N+](C)(C)C (stereo not drawn) [Example 3, Me3N(CH2)6NMe3 Docusate]
- Solubility in water [2]: Hydrophobic

Compound: CCCCC(CC)COC(=O)CC(C(=O)OCC(CC)CCCC)S(=O)(=O)[O-].CC[N+](CC)(CC)CC (stereo not drawn) [Example 5, Et4N Docusate]
- Solubility in water [2]: miscible

Compound: CCCCC(CC)COC(=O)CC(C(=O)OCC(CC)CCCC)S(=O)(=O)[O-].CCCCCCn1cc[n+](C)c1 (stereo not drawn) [Example 6, 1-n-hexyl-3-methyl imidazolium docusate]
- Phase behaviour on contact with water (addition of additional water to the gel, followed by agitation): formation of two phases
- Phase behaviour on contact with water (contacted with 40 volume percent or less of water, even after agitation): formation of two phases
- Phase behaviour on contact with water (contacted with 50 volume percent water, agitation): stiff, visibly monophasic gel

Compound: CCCCC(CC)CN(CC)C(=O)CC(C(=O)N(CC)CC(CC)CCCC)S(=O)(=O)[O-].CCCC[N+](CCCC)(CCCC)CCCC (stereo not drawn) [Example 11]
- Solubility in several common organic solvents [3]: soluble
- Solubility in water [2]: soluble
